In ChEMBL document CHEMBL1201862, “PubChem BioAssay data set” (2004):
Activity calls are given as the source filed them.

Tests used:
[1] = blockers of HIV-1 ZM109 envelope-driven cell-cell fusion – HeLa effector, CEM target cells, luciferase, cherry-pick, dose response (AID 652058); assay type: functional, cell-based;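 note: luciferase signal from HIV-1 Env mediated cell-cell fusion of effector and target cells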
[2] = HIV-1 AD8 envelope cell-cell fusion blockers – cherry-pick, dose response (AID 652062); assay type: functional, cell-based;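 note: luciferase signal from cell-cell fusion driven by HIV-1 clade B AD8 Env; potency is for inhibitors of fusion seen as a drop in luminescence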
[3] = off-target signal loss in HeLa-CEM21 co-culture – HeLa F-luc CTL cells, cherry-picked, counter-screen for HIV-1 Env fusion inhibitor project, dose response (AID 652040); assay type: functional, cell-based;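 note: potency for signal decrease marking cytotoxic or nonspecific inhibition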
[4] = target: Interleukin-8 (Homo sapiens, UniProt P10145); test: Dose Response confirmation of uHTS small molecule hits for cystic fibrosis induced NFkb Inhibitors in a PAF-induced IL8 counterscreen.; assay type: functional; conditions: read-out: IC50_Mean
Interleukin-8, sequence (P10145 whole entry, the tested form may be a part): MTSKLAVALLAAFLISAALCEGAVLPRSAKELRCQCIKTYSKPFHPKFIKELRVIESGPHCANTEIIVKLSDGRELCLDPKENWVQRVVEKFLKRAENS

[5] = blockers of HIV-1 envelope-mediated cell-cell fusion – cherry-pick, dose response (AID 652057); assay type: functional, cell-based
[6] = target: Galanin receptor type 3 (Homo sapiens, UniProt O60755); test: Fluorescence-based cell-based primary high throughput dose response assay to identify antagonists of the Galanin Receptor 3 (GalR3).; assay type: functional
Galanin receptor type 3, sequence (O60755 whole entry): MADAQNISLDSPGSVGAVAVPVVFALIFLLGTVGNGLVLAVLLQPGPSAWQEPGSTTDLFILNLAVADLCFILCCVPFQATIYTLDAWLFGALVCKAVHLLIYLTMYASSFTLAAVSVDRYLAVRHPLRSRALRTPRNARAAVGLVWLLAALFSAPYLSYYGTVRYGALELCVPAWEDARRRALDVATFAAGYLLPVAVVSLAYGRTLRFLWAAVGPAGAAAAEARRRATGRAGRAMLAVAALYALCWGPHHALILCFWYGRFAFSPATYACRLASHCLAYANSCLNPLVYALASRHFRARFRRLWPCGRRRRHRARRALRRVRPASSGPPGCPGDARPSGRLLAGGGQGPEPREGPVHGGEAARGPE

[7] = cells; assay type: functional, cell-based; conditions: HEK-CNG
[8] = test system: H9c2; test: cells; assay type: functional, cell-based; conditions: Rattus norvegicus, H9c2, Myocardium;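 note: confirmatory concentration-response retest of ultra-high-throughput screening hits for modulation of myocardial damage; cell death induced by hydrogen peroxide oxidative stress; compound pretreatment for 60 min then peroxide exposure for 2 h; potency is for protecting the cells against peroxide damage rather than for killing them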
[9] = HGIII-sPLA2 enzyme inhibition potency – biochemical, QFRET, IC50, dose response (AID 743457);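 note: green fluorescence rise as the enzyme cleaves BODIPY PC-A2 in liposomes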
[10] = target: T1, Long-chain-fatty-acid--AMP ligase FadD28 (Mycobacterium tuberculosis, UniProt P9WQ59); test: Fluorescence polarization aasay to screen for inhibitors that compete for the binding of FadD28 to a bisubstrate Measured in Biochemical System Using Plate Reader - 2147-01_Inhibitor_Dose_CherryPick_Activity.; assay type: functional, Mycobacterium tuberculosis H37Rv
T1 sequence (P9WQ59 whole entry): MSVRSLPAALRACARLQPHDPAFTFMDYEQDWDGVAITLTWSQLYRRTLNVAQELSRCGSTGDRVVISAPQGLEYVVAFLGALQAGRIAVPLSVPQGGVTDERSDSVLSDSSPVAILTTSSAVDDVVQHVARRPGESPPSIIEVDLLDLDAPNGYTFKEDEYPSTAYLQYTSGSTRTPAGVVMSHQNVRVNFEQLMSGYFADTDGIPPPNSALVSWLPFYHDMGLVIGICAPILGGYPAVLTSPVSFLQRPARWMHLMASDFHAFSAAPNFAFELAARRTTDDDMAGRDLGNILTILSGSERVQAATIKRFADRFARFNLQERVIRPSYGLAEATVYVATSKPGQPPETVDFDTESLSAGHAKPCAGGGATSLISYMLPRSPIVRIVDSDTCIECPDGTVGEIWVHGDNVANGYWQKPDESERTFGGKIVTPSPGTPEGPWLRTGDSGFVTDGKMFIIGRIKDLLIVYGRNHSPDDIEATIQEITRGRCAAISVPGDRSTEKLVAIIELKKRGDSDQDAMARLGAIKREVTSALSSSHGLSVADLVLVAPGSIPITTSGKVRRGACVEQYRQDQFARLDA

[11] = target: T2, Oxysterols receptor LXR-beta (Homo sapiens, UniProt P55055); assay type: functional, cell-based;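 note: agonist activity at LXR measured by a cell-based luminescence readout across a dose range, run as a counterscreen for daf-12 agonists; HEK293 cells with Gal4-LXR fusion and GAL4-driven luciferase reporter; potency for activation of Gal4-LXR reporter so compounds are agonists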
T2 sequence (P55055 whole entry): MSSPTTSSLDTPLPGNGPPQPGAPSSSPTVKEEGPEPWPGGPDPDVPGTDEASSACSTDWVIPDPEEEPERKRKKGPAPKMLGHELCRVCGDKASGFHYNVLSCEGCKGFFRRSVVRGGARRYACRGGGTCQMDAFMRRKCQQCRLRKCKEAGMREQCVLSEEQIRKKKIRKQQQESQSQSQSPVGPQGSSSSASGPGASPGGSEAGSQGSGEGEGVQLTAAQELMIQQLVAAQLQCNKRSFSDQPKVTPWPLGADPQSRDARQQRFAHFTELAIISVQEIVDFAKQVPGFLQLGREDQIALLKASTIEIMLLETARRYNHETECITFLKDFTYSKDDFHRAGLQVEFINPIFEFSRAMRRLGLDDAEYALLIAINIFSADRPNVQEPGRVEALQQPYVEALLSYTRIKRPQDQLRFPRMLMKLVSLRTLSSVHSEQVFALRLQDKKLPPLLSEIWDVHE

[12] = Trypanosoma cruzi growth suppression in host cells – NIH3T3 host cells, beta-gal luminescence, confirmation (AID 2044); assay type: functional, cell-based;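 note: intracellular parasites grown in NIH/3T3 mouse fibroblasts as host cells; luminescent beta-galactosidase reporter signal from transgenic T. cruzi replicating inside host cells; inhibitors lower the luminescence signal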
[13] = HEK-293T cell viability reduction – luminescence, B-cell screen hits, cytotoxicity control for BCR NF-kB inhibitor project, dose response (AID 489021); assay type: functional, cell-based;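 note: HEK-293T cells carrying an NF-kB luciferase reporter; cells exposed to compound for about 14 hours before viability readout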
[14] = target: T3, Sentrin-specific protease 8 (Homo sapiens, UniProt Q96LD8); assay type: functional
T3 sequence (Q96LD8 whole entry): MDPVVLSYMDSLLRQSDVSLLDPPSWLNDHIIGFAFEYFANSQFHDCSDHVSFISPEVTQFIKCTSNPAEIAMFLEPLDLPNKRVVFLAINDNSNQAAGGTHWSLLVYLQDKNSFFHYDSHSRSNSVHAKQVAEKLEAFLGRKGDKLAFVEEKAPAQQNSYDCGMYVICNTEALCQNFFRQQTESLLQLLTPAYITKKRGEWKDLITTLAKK

[15] = target: T3, Sentrin-specific protease 8; assay type: functional; remark: listed apart in the source
[16] = NIH3T3 cell viability loss – ATP luminescence, mouse fibroblasts, counter-screen, dose response (AID 2010); assay type: functional, cell-based;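 note: cells exposed to compound for about 90 hours before reading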
[17] = target: FAD-linked sulfhydryl oxidase ALR (Homo sapiens, UniProt P55789); test: ALR-catalysed DTT oxidation blockers – biochemical, H2O2 detection, luminescence, cherry-pick, dose response (AID 493248)
FAD-linked sulfhydryl oxidase ALR, sequence (P55789 whole entry): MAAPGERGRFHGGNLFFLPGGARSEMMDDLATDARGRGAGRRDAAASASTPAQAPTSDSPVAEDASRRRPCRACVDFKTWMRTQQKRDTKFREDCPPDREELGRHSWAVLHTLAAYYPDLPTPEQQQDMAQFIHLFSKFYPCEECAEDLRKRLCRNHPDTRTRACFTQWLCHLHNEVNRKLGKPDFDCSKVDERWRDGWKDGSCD

[18] = target: Adenosylmethionine-8-amino-7-oxononanoate aminotransferase (Mycobacterium tuberculosis, UniProt P9WQ81); test: Mycobacterium tuberculosis BioA enzyme inhibitor Measured in Biochemical System Using Plate Reader - 2163-02_Inhibitor_Dose_CherryPick_Activity.; assay type: functional, Mycobacterium tuberculosis UT205
Adenosylmethionine-8-amino-7-oxononanoate aminotransferase, sequence (P9WQ81 whole entry): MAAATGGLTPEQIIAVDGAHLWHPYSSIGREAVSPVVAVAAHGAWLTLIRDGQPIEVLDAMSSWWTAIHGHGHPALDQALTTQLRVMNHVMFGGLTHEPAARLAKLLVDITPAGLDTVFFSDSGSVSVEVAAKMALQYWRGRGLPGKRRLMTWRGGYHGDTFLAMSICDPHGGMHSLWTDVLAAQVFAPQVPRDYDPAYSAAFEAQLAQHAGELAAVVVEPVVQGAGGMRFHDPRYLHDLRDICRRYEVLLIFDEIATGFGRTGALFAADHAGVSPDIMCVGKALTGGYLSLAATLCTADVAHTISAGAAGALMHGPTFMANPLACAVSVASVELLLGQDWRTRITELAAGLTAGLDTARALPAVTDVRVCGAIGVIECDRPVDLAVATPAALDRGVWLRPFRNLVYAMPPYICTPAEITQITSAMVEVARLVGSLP

[19] = target: T4, Probable nicotinate-nucleotide adenylyltransferase (Staphylococcus aureus (strain N315), UniProt P65502); assay type: functional, Staphylococcus aureus subsp. aureus N315; conditions: read-out: IC50_Mean;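 for IC50 Mean: confirmatory dose-response retesting of NadD inhibitor hits first found in an ultra-high-throughput screen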
T4 sequence (P65502 whole entry): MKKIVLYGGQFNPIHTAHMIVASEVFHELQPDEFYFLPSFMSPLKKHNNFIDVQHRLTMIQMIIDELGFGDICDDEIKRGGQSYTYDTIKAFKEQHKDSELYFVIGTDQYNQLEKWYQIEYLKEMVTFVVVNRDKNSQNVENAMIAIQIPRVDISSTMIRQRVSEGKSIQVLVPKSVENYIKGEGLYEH

[20] = viability of PTEN-deleted HCT116 cells – cell-based, HCT116 PTEN knockout, dose response (AID 1047); assay type: functional;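 note: HCT116 colon tumor cells with PTEN knocked out; cells exposed to compound for 60 hours before readout; potency for loss of cell viability measured by luminescence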
[21] = viability of HCT116 lacking mutant beta-catenin – cell-based, human colon tumor, dose response (AID 1045); assay type: functional;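 note: HCT116 colon tumor cells with beta catenin knocked out; cells exposed to compound for 60 hours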
[22] = target: T4, Probable nicotinate-nucleotide adenylyltransferase; assay type: functional, Staphylococcus aureus subsp. aureus N315
[23] = test system: HEK293; test: EBV LMP1 TES2 canonical NF-kB signalling blockers – cell-based, HEK293, luciferase, cherry-pick, dose response (AID 588343); assay type: functional; conditions: Homo sapiens
[24] = target: T5, Methionyl-tRNA synthetase, putative (Trypanosoma brucei brucei, UniProt Q38C91); assay type: functional, Trypanosoma brucei brucei strain 927/4 GUTat10.1
T5 sequence (Q38C91 whole entry): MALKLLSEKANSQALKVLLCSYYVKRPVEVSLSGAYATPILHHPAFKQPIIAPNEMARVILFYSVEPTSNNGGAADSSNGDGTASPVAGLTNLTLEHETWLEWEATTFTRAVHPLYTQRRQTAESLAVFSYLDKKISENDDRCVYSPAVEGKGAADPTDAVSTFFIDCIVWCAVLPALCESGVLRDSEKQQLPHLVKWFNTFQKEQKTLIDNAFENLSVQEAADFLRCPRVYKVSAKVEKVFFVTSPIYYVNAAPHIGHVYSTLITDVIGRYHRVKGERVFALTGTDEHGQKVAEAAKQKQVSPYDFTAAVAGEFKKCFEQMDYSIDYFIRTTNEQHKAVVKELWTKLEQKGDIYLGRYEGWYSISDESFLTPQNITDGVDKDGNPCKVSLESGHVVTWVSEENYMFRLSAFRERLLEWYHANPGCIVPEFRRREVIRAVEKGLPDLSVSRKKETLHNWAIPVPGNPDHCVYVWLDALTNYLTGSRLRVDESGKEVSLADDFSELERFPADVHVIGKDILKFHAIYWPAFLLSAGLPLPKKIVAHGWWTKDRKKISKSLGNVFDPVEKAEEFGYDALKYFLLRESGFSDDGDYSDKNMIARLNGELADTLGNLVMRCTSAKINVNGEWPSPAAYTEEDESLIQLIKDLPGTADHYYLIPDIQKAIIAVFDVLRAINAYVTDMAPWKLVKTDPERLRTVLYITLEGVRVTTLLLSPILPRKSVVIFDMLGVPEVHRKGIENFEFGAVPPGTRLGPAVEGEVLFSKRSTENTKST

[25] = Counterscreen for inhibitors of Trypanosoma brucei methionyl tRNA synthetase (MetRS): Luminescence-based cell-based high throughput dose response assay to identify compounds that are cytotoxic to Jurkat human T lymphocyte cells.; assay type: functional
[26] = target: T5, Methionyl-tRNA synthetase, putative; assay type: functional, Trypanosoma brucei brucei strain 927/4 GUTat10.1; remark: listed apart in the source
[27] = reduction of Shn3 3'UTR-driven luciferase in osteoblasts – cell-based, Clone20 osteoblasts, firefly luciferase, cherry-picked, dose response (AID 624132); assay type: functional;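 note: firefly luciferase luminescence from reporter carrying the Shn3 3'UTR in osteoblasts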
[28] = loss of viability in HepG2 cells – cell-based, CellTiter-Glo, cherry-picked, cytotoxicity control for Shn3 inhibitor project, dose response (AID 624134); assay type: functional
[29] = non-specific 3'UTR reporter inhibition in Clone20-Shn3RL – cell-based, Renilla luciferase, cherry-picked, counter-screen for Shn3 inhibitor project, dose response (AID 624133); assay type: functional
[30] = target: Paired box protein Pax-8 (Homo sapiens, UniProt Q06710); test: PAX8 transcriptional activity inhibition in RMG-I – RMG-I cells, luciferase, cherry-pick, dose response (AID 687027); assay type: functional, cell-based;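 note: luciferase reporter driven by Pax8 target thyroperoxidase promoter measured by SteadyGlo luminescence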
Paired box protein Pax-8, sequence (Q06710 whole entry): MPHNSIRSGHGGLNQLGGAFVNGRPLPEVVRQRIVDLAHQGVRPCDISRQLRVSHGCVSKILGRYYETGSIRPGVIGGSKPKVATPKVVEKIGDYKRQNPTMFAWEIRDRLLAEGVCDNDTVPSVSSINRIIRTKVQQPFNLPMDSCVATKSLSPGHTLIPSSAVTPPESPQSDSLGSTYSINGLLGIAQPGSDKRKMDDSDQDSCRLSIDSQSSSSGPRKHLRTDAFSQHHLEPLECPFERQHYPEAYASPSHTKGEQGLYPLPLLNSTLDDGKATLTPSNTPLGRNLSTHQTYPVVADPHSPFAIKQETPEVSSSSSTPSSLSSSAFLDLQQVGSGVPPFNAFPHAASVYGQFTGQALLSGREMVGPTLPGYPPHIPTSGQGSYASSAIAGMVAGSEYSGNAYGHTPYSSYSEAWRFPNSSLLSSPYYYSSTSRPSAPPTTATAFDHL

[31] = OVCAR-3 cell viability loss – plate reader, dry powder samples, PAX8 inhibitor project, dose response (AID 743044); assay type: functional, cell-based
[32] = OVCAR8 cell viability loss – plate reader, dry powder samples, PAX8 project, dose response (AID 743197); assay type: functional, cell-based; conditions: OVCAR-8
[33] = Late stage assay provider results from the probe development effort to identify inhibitors of the Plasmodium falciparum M17 Leucine Aminopeptidase (M17LAP): radiolabel-based cell-based dose response assay to identify compounds that inhibit P. falciparum growth in RBCs Set 2.; assay type: functional
[34] = T. cruzi growth inhibition in host cells, dose response, cell-based, plate reader, dry powder, set 2 (AID 652275); assay type: functional

SMILES: COc1ccc(C2=Nn3c(nnc3-c3ccncc3)SC2)cc1
- AC50 [1]: 1.13 µM (active)
- AC50 [2]: 1.03 µM (active)
- AC50 [3]: 2.34 µM (active)
- IC50 [4]: 40.8 µM (inactive)
- AC50 [5]: 2.02 µM (active)

SMILES: CNC(=O)NC(=O)CSc1nnc(-c2ccc(F)cc2)n1CC1CCCO1 (centres undefined)
- IC50 [6]: > 29.9 µM (inactive)
- EC50 [7]: > 29.9 µM (inactive)

SMILES: CCOC(=O)N1CCN(S(=O)(=O)c2ccc(C(=O)NNc3nc4c(C)cccc4s3)cc2)CC1
- IC50 [8]: 14.2 µM (active)
- IC50 [9]: 25.9 µM (inactive)
- AC50 [10]: 22.1 µM (active)

SMILES: Cc1ccc2nc(-c3ccccn3)oc2c1
- EC50 [11]: > 67.6 µM (inactive)

SMILES: CCc1ccc(/C=C(/C#N)C(N)=S)cc1
- IC50 [9]: > 122 µM (inactive)

SMILES: Cc1ccc(Sc2cc(NCCCO)c([N+](=O)[O-])c3nonc23)cc1
- EC50 [12]: 2.2 µM (active)
- IC50 [13]: > 80 µM (inactive)
- IC50 [14]: 18.1 µM (active)
- IC50 [15]: 23.3 µM (active)
- EC50 [16]: > 60 µM (not active)

SMILES: O=C(Nc1ccc2snnc2c1)N1CCN(c2ccccc2)CC1
- AC50 [17]: 0.913 µM (active)
- AC50 [18]: 0.0986 µM (active)

SMILES: O=C(NC(=S)Nc1cc(-c2nc3ccccc3[nH]2)ccc1Cl)c1ccc2c(c1)OCO2
- IC50 [19]: 58.9 µM (active)
- EC50 [20]: 1.53 µM (active)
- EC50 [21]: 2.23 µM (active)
- IC50 [22]: 21.1 µM (active)

SMILES: Cc1cccc(Nc2[nH]nc(C)c2[N+](=O)[O-])c1
- EC50 [11]: > 67.5 µM (inactive)

SMILES: CC(=O)c1c(C)n(C2CCCCC2)c2ccc(O)cc12
- IC50 [4]: > 79 µM (inactive)
- AC50 [23]: 3.23 µM (active)

SMILES: Cc1nc(-c2cccnc2)sc1C(=O)Nc1cccc(C(F)(F)F)c1
- EC50 [20]: 15.7 µM (active)
- EC50 [21]: 26.8 µM (active)
- AC50 [18]: 3.76 µM (active)

SMILES: COc1ccc(CNC(=O)CSc2n[nH]c3c4ccccc4nc-3n2)cc1
- IC50 [24]: 4.39 µM (active)
- IC50 [25]: 83.3 µM (inactive)
- IC50 [26]: 1.54 µM (active)

SMILES: CC1(OC(=O)C2CCCC2)C(=O)C=C2C=C(c3ccc(C#N)cc3)OC=C2C1=O (centres undefined)
- IC50 [19]: 15.7 µM (active)
- IC50 [22]: 6.57 µM (active)

SMILES: COc1ccc(-c2coc3c(C(=O)NCc4ccc(OC)c(OC)c4)cccc23)c(C)c1
- AC50 [27]: 0.722 µM (active)
- IC50 [6]: 0.358 µM (active)
- EC50 [7]: > 29.9 µM (inactive)
- AC50 [28]: 1.77 µM (active)
- AC50 [29]: 1.4 µM (active)

SMILES: Cc1ccc(S(=O)(=O)Nc2ccc3c(c2)C(=O)N([C@H](C)CO)C[C@H](C)[C@@H](CN(C)S(=O)(=O)c2cccs2)OCCCC[C@H](C)O3)cc1
- AC50 [30]: 4.23 µM (active)
- AC50 [31]: 20.5 µM (active)
- AC50 [32]: > 70 µM (inactive)

SMILES: COCCNC(=O)C[C@@H]1C[C@H]2c3cc(NC(=O)Nc4ccc(C(F)(F)F)cc4)ccc3O[C@H]2[C@H](CO)O1
- AC50 [30]: 26.6 µM (active)
- AC50 [32]: > 70 µM (inactive)

SMILES: Cc1[nH]n(-c2ccccc2)c(=O)c1S(=O)(=O)c1ccccc1
- IC50 [14]: 4.99 µM (active)
- IC50 [15]: 12.8 µM (active)

SMILES: CCCCOc1ccc(CNc2c(N(C)O)c(=O)c2=O)cc1
- IC50 [33]: 19 µM (inactive)

SMILES: CCOc1ccc(CC(=O)NO)cc1
- IC50 [33]: 7.2 µM (active)

SMILES: CC(C)N1C[C@H](C)[C@@H](CN(C)Cc2ccc(Cl)c(Cl)c2)Oc2c(cccc2-c2cn(-c3ccncc3)nn2)C1=O
- AC50 [34]: 0.00149 µM (active)
